Assay results reported in US9682978B2, “2,6,7 substituted purines as HDM2 inhibitors” (Merck Sharp & Dohme Corp., priority 2013, dated 2017).

Molecular target: T1, HDM2 (Homo sapiens, UniProt Q00987)
T1 construct: Thioredoxin (N); made in house; host or cells: E. coli BL21(DE3)Rosetta (pET32a)
Assay: HDM2 FRET assay (inhibition of p53 peptide binding to HDM2)
Settings: Table 1, printed in the FRET IC50 column; at 1000 nM compound
From the text: Methods: An HDM2 FRET assay was developed to assess the compounds' inhibitory activity towards binding of p53 protein. A truncated version of HDM2 with residues 17 to 125 (containing p53 binding surface, Science (1994) 265, 346-355), with N-terminal His and Thioredoxin tag was generated in pET32a expression vector and expressed in E. coli strain BL21(DE3)Rosetta. Protein was purified using Ni-affinity chromatography, followed by size exclusion chromatography using Superdex 75 26/60 column. To assess inhibition of p53 binding to HDM2, a FITC labeled 8-mer peptide (sequence: Ac-Phe-Arg-Dpr-Ac6c-(6-Br)Trp-Glu-Glu-Leu-NH2; Anal Biochem. 2004 Aug. 1; 331(1):138-46) with strong affinity towards p53 binding pocket of HDM2 was used. The HDM2 assay buffer contained 1× Phosphate Buffered Saline (Invitrogen, Cat#14190), 0.01% BSA (Jackson ImmunoResearch, Cat#001-000-162), 0.01% Tween-20. In the 1× assay buffer recombinant HDM2 protein, peptide and Lumi4-Tb Cryptate-conjugate mouse anti-6×HIS antibody (cisbio, Cat#Tb61HISTLB) were added and transferred to ProxiPlate PLUS (PerkinElmer, Cat#6008269), containing compounds so that final DMSO concentration is 0.1%. Final concentrations of reagents in the assay wells are 0.5 nM HDM2, 0.25 nM anti HIS (Tb label) antibody and 3 nM peptide. After two hour incubation at room temperature in a humidified chamber plates were read on EnVision plate reader with the following settings: excitation: UV, […], two emission filters: 520 nm and 495 nm respectively. Ratio of em520/em495 was used to calculate % inhibition and to obtain IC50 with 4-parameter logistic equation.
IC50 DETERMINATIONS: Dose-response curves were plotted from the inhibition data, from 10 point serial dilutions of inhibitory compounds. Concentration of compound was plotted against em520/Cem495 ratio signal. To generate IC50 values, the dose-response curves were fitted to a standard sigmoidal curve and IC50 values were derived by nonlinear regression analysis. IC50 values in the above table are rounded to the nearest integer.

T1 sequence (Q00987 17-125): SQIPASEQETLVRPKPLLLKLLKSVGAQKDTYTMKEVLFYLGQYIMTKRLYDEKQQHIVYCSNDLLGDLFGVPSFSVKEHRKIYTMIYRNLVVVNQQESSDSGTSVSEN

Structure (SMILES)	inhibition at 1 µM
CC1(C)CCCN(c2nc(-c3noc(=O)[nH]3)nc3ncn(C[C@H]4CC[C@H](C)CC4)c23)C1 [Example 1.12, 3-{6-(3,3-dimethylpiperidin-1-yl)-7-[(trans-4-methylcyclohexyl)methyl]-7H-purin-2-yl}-1,2,4-oxadiazol-5(4H)-one]	43%
COc1cccc(Oc2nc(-c3noc(=O)[nH]3)nc3ncn(C[C@H]4CC[C@H](C)CC4)c23)c1 [Example 1.9, 3-{6-(3-methoxyphenoxy)-7-[(trans-4-methylcyclohexyl)methyl]-7H-purin-2-yl}-1,2,4-oxadiazol-5(4H)-one]	39%
CC1CCCN(c2nc(-c3noc(=O)[nH]3)nc3ncn(C[C@H]4CC[C@H](C)CC4)c23)C1 (stereo partly drawn) [Example 1.11, 3-{7-[(trans-4-methylcyclohexyl)methyl]-6-(3-methylpiperidin-1-yl)-7H-purin-2-yl}-1,2,4-oxadiazol-5(4H)-one]	43%
C[C@H]1CC[C@H](Cn2cnc3nc(-c4noc(=O)[nH]4)nc(N4CCCC(C(F)(F)F)C4)c32)CC1 (stereo partly drawn) [Example 1.10, 3-{7-[(trans-4-methylcyclohexyl)methyl]-6-[3-(trifluoromethyl)piperidin-1-yl]-7H-purin-2-yl}-1,2,4-oxadiazol-5(4H)-one]	37%

Same assay, conditions: Table 1; truncated HDM2 residues 17 to 125, 0.5 nM HDM2, 3 nM FITC labeled 8-mer peptide, two hour incubation

Structure (SMILES)	IC50
C[C@@H](Nc1nc(-c2nc(=O)n(C)[nH]2)nc2ncn(C[C@H]3CC[C@H](C)CC3)c12)C1CCC1 [Example 1.3, 5-(6-{[(1R)-1-cyclobutylethyl]amino}-7-[(trans-4-methylcyclohexyl)methyl]-7H-purin-2-yl)-2-methyl-1,2-dihydro-3H-1,2,4-triazol-3-one]	71.1 nM
C[C@@H](Nc1nc(-c2n[nH]c(=O)n2C)nc2ncn(C[C@H]3CC[C@H](C)CC3)c12)C1CCC1 [Example 1.16, 5-(6-{[(1R)-1-cyclobutylethyl]amino}-7-[(trans-4-methylcyclohexyl)methyl]-7H-purin-2-yl)-4-methyl-2,4-dihydro-3H-1,2,4-triazol-3-one]	241 nM
C[C@@H](Nc1nc(C(=O)O)nc2ncn(Cc3ccc(C(F)(F)F)cc3)c12)C1CC1 [Example 1.1, 6-{[(1R)-1-cyclopropylethyl]amino}-7-[4-(trifluoromethyl)benzyl]-7H-purine-2-carboxylic acid]	1140 nM

Same assay, conditions: Table 2; truncated HDM2 residues 17 to 125, 0.5 nM HDM2, 3 nM FITC labeled 8-mer peptide, two hour incubation

Structure (SMILES)	IC50
C[C@H]1CC[C@H](Cn2cnc3nc(-c4noc(=O)[nH]4)nc(-c4cccc(C#N)c4)c32)CC1 [Example 2.9, 3-{7-[(trans-4-methylcyclohexyl)methyl]-2-(5-oxo-4,5-dihydro-1,2,4-oxadiazol-3-yl)-7H-purin-6-yl}benzonitrile]	518 nM
C[C@H]1CC[C@H](Cn2cnc3nc(-c4noc(=O)[nH]4)nc(-c4cc(Cl)cnc4O)c32)CC1 [Example 2.16, 3-{6-(5-chloro-2-hydroxypyridin-3-yl)-7-[(trans-4-methylcyclohexyl)methyl]-7H-purin-2-yl}-1,2,4-oxadiazol-5(4H)-one]	87.6 nM
COCCOc1cc(Cl)cc(-c2nc(-c3n[nH]c(=O)o3)nc3ncn(C[C@H]4CC[C@H](C)CC4)c23)c1 [Example 2.23, 5-{6-[3-chloro-5-(2-methoxyethoxy)phenyl]-7-[(trans-4-methylcyclohexyl)methyl]-7H-purin-2-yl}-1,3,4-oxadiazol-2(3H)-one]	132 nM
CS(=O)(=O)c1cc(Cl)cc(-c2nc(-c3noc(=O)[nH]3)nc3ncn(C[C@H]4CC[C@H](C)CC4)c23)c1 [Example 2.17, 3-{6-[3-chloro-5-(methylsulfonyl)phenyl]-7-[(trans-4-methylcyclohexyl)methyl]-7H-purin-2-yl}-1,2,4-oxadiazol-5(4H)-one]	250 nM
C[C@H]1CC[C@H](Cn2cnc3nc(-c4noc(=O)[nH]4)nc(-c4cc(Cl)cc(C(N)=O)c4)c32)CC1 [Example 2.13, 3-chloro-5-{7-[(trans-4-methylcyclohexyl)methyl]-2-(5-oxo-4,5-dihydro-1,2,4-oxadiazol-3-yl)-7H-purin-6-yl}benzamide]	50.8 nM
C[C@H]1CC[C@H](Cn2cnc3nc(-c4noc(=O)[nH]4)nc(-c4cc(Cl)cc(C#N)c4)c32)CC1 [Example 2.4, 3-chloro-5-{7-[(trans-4-methylcyclohexyl)methyl]-2-(5-oxo-4,5-dihydro-1,2,4-oxadiazol-3-yl)-7H-purin-6-yl}benzonitrile]	413 nM
COCOc1cc(Cl)cc(-c2nc(-c3noc(=O)[nH]3)nc3ncn(C[C@H]4CC[C@H](C)CC4)c23)c1 [Example 2.14, 3-{6-[3-chloro-5-(methoxymethoxy)phenyl]-7-[(trans-4-methylcyclohexyl)methyl]-7H-purin-2-yl}-1,2,4-oxadiazol-5(4H)-one]	41.7 nM
C[C@H]1CC[C@H](Cn2cnc3nc(-c4noc(=O)[nH]4)nc(-c4cncc(Cl)c4)c32)CC1 [Example 2.12, 3-{6-(5-chloropyridin-3-yl)-7-[(trans-4-methylcyclohexyl)methyl]-7H-purin-2-yl}-1,2,4-oxadiazol-5(4H)-one]	86 nM
C[C@H]1CC[C@H](Cn2cnc3nc(-c4noc(=O)[nH]4)nc(-c4cc(O)cc(Cl)c4)c32)CC1 [Example 2.7, 3-{6-(3-chloro-5-hydroxyphenyl)-7-[(trans-4-methylcyclohexyl)methyl]-7H-purin-2-yl}-1,2,4-oxadiazol-5(4H)-one]	111 nM
C[C@H]1CC[C@H](Cn2cnc3nc(-c4noc(=O)[nH]4)nc(-c4cccc(Br)c4)c32)CC1 [Example 2.8, 3-{6-(3-bromophenyl)-7-[(trans-4-methylcyclohexyl)methyl]-7H-purin-2-yl}-1,2,4-oxadiazol-5(4H)-one]	157 nM
C[C@H]1CC[C@H](Cn2cnc3nc(-c4noc(=O)[nH]4)nc(-c4ccnc(Cl)c4)c32)CC1 [Example 2.15, 3-{6-(2-chloropyridin-4-yl)-7-[(trans-4-methylcyclohexyl)methyl]-7H-purin-2-yl}-1,2,4-oxadiazol-5(4H)-one]	188 nM

Same assay, conditions: Table 3; truncated HDM2 residues 17 to 125, 0.5 nM HDM2, 3 nM FITC labeled 8-mer peptide, two hour incubation

Structure (SMILES)	IC50
CCC1CCC(Cn2cnc3nc(C(=O)O)nc(N[C@H](C)C4CCC4)c32)C1 (single isomer, unassigned) [Example 3.12]	146 nM
CC1CCC(Cn2cnc3nc(-c4noc(=O)[nH]4)nc(N[C@H](C)C4CCC4)c32)C1 (mixture of isomers) [Example 3.9, 3-(6-{[(1R)-1-cyclobutylethyl]amino}-7-[(3-methylcyclopentyl)methyl]-7H-purin-2-yl)-1,2,4-oxadiazol-5(4H)-one]	1640 nM
CCC1CCC(Cn2cnc3nc(C(=O)O)nc(N[C@H](C)C4CCC4)c32)C1 (single isomer, unassigned) [Example 3.13]	510 nM
CCC1CCC(Cn2cnc3nc(-c4noc(=O)[nH]4)nc(N[C@H](C)C4CCC4)c32)C1 (single isomer, unassigned) [Example 3.14]	189 nM
C=C1CCC(Cn2cnc3nc(-c4noc(=O)[nH]4)nc(N[C@H](C)C4CCC4)c32)CC1 [Example 3.7, 3-(6-{[(1R)-1-cyclobutylethyl]amino}-7-[(4-methylidenecyclohexyl)methyl]-7H-purin-2-yl)-1,2,4-oxadiazol-5(4H)-one]	543 nM
CC([C@H]1CC[C@H](C)CC1)n1cnc2nc(-c3noc(=O)[nH]3)nc(N[C@H](C)C3CCC3)c21 (stereo partly drawn) [Example 3.18, 3-(6-{[(1R)-1-cyclobutylethyl]amino}-7-[1-(trans-4-methylcyclohexyl)ethyl]-7H-purin-2-yl)-1,2,4-oxadiazol-5(4H)-one]	17 nM
CC([C@H]1CC[C@H](C)CC1)n1cnc2nc(-c3noc(=O)[nH]3)nc(N[C@H](C)C3CCC3)c21 (single isomer, unassigned) [Example 3.17]	421 nM
C[C@@H]1CC[C@@H](Cn2cnc3nc(-c4noc(=O)[nH]4)nc(N[C@H](C)C4CCC4)c32)CC1(F)F (stereo in doubt) [Example 3.5, 3-(6-{[(1R)-1-cyclobutylethyl]amino}-7-{[(trans)-3,3-difluoro-4-methylcyclohexyl]methyl}-7H-purin-2-yl)-1,2,4-oxadiazol-5(4H)-one]	198 nM
C=C1CCC(Cn2cnc3nc(C(=O)O)nc(N[C@H](C)C4CCC4)c32)CC1 [Example 3.8, 6-{[(1R)-1-cyclobutylethyl]amino}-7-[(4-methylidenecyclohexyl)methyl]-7H-purine-2-carboxylic acid]	677 nM
C[C@@H](Nc1nc(C(=O)O)nc2ncn(CC3CCC4(CC3)CC4)c12)C1CCC1 [Example 3.4, 6-{[(1R)-1-cyclobutylethyl]amino}-7-(spiro[2.5]oct-6-ylmethyl)-7H-purine-2-carboxylic acid]	2700 nM
